One series can be described thus: Water solubility. The series is classed as physicochemical. On the procedure:
Bortezomib (a boronic acid compound), in its solid state as a pure API existed in the form of highly water insoluble boroxine, a cyclic boronic acid anhydride. When placed in water, the boroxine dissociated to form equilibrium between itself and the monomeric bortezomib resulting in an apparent water solubility of about 0.5-1 mg/ml which was not sufficient for formulation purposes. In order to deal with such issues, the innovator company in their patent WO2002059130 application has described a stable formulation containing mannitol ester of bortezomib. The application '9130 also relates to a process of preparing such formulation by first dissolving the bortezomib in warm (temperature around 45±2° C.) TBA (tertiary butyl alcohol), then adding water and mannitol (1% bulking agent), followed by freeze drying. […] So, the FDA approved drug Bortezomib is now available as a mannitol boronic ester which in its reconstituted form consists of the mannitol ester in equilibrium with its hydrolysis product, the monomeric boronic acid. The drug substance exists in its cyclic anhydride from as a trimeric boroxine, as described below in FIG. 1.

The conditions of series [1]: boroxine placed in water, equilibrium with monomeric bortezomib; cited from earlier work.

Data on 2 compounds can be found in patent publication US10023611B2, “Process for the preparation of bortezomib mannitol ester” (Cipla Limited, priority 2013, dated 2018).

On to `CC(C)C[C@H](NC(=O)[C@H](Cc1ccccc1)NC(=O)c1cnccn1)B1OC(C(O)CO)C(C(O)CO)O1` (stereo in doubt) [Compound B, bortezomib-mannitol ester], for which, in the series “Water solubility”, the “water solubility (soluble in volumes of water)” value is “around 5 volumes water”.

`CC(C)C[C@H](NC(=O)[C@H](Cc1ccccc1)NC(=O)c1cnccn1)B(O)O` [Bortezomib, [(1R)-3-methyl-1-[[(2S)-1-oxo-3-phenyl-2-[(pyrazinylcarbonyl)amino]propyl]amino]butyl] boronic acid]: the apparent water solubility in series [1] is 500 to 1000 µg/mL. The “water solubility (in words)” value in the series “Water solubility” was “poorly water soluble”.
